Consider 28 compounds from patent publication US20090111801A1, “SUBSTITUTED PYRAZINONE DERIVATIVES FOR USE AS A MEDICINE” (Janssen Pharmaceutica N.V., priority 2006, published 2009).

For one assay, the target named is T1, hα2A receptor (Homo sapiens, UniProt P08913).
T1 construct: expressed in transfected cells; host or cells: CHO cells, stably transfected; membrane preparation
T1 sequence (P08913 1-465): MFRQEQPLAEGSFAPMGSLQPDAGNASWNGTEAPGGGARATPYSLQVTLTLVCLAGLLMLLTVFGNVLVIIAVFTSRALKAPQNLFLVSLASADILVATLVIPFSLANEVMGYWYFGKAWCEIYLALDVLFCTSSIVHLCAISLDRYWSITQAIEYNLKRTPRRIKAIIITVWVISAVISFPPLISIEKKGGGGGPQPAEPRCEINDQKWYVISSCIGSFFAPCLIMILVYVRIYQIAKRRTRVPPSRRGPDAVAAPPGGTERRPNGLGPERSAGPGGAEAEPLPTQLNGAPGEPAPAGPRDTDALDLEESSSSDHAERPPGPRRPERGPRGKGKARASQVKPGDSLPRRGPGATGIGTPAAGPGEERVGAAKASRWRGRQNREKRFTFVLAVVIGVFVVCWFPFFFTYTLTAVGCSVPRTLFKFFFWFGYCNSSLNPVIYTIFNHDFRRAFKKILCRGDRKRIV
As to the kind of experiment: Radioligand binding experiment for α2A-adrenoceptor ([3H]raulwolscine, CHO cell membranes). Particulars: [3H]raulwolscine binding; for IC50: read-out: h-α2A pIC50 (converted). The method, then: (§1) The interaction of a compound of Formula (I) with α2-adrenoceptor receptors was assessed in in vitro radioligand binding experiments. In general, a low concentration of a radioligand with a high binding affinity for a particular receptor or transporter is incubated with a sample of a tissue preparation enriched in a particular receptor or transporter or with a preparation of cells expressing cloned human receptors in a buffered medium. During the incubation, the radioligand binds to the receptor or transporter. When equilibrium of binding is reached, the receptor bound radioactivity is separated from the non-bound radioactivity, and the receptor- or transporter-bound activity is counted. The interaction of the test compounds with the receptor is assessed in competition binding experiments. Various concentrations of the test compound are added to the incubation mixture containing the receptor- or transporter preparation and the radioligand. The test compound in proportion to its binding affinity and its concentration inhibits binding of the radioligand. The radioligand used for hα2A and hα2C receptor binding was [^3H]-raulwolscine.
(§2) CHO cells, stabile transfected with human adrenergic-α2A and α2C receptor cDNA, were cultured in Dulbecco's Modified Eagle's Medium (DMEM)/Nutrient mixture Ham's F12 (ratio 1:1)(Gibco, Gent-Belgium) supplemented with 10% heat inactivated fetal calf serum (Life Technologies, Merelbeke-Belgium) and antibiotics (100 IU/ml penicillin G, 100 μg/ml streptomycin sulphate, 110 μg/ml pyruvic acid and 100 μg/ml L-glutamine). One day before collection, cells were induced with 5 mM sodiumbutyrate. Upon 80-90% of confluence, cells were scraped in phosphate buffered saline without Ca^2+ and Mg^2+ and collected by centrifugation at 1500×g for 10 minutes. The cells were homogenised in Tris-HCl 50 mM using an Ultraturrax homogenizer and centrifuged for 10 minutes at 23,500×g. The pellet was washed once by resuspension and rehomogenization and the final pellet was resuspended in Tris-HCl, divided in 1 ml aliquots and stored at −70° C.
(§3) Membranes were thawed and re-homogenized in incubation buffer (glycylglycine 25 mM, pH 8.0). […] Filters were rinsed extensively with ice-cold rinsing buffer (Tris-HCl 50 mM pH 7.4). Filter-bound radioactivity was determined by scintillation counting in a Topcount (Packard, Meriden, Conn.) and results were expressed as counts per minute (cpm). Non-specific binding was determined in the presence of 1 μM oxymetazoline for the hα2A receptor and 1 μM spiroxatrine for hα2C receptor.
(§4) Data from assays in the presence of compound were calculated as a percentage of total binding measured in the absence of test compound. Inhibition curves, plotting percent of total binding versus the log value of the concentration of the test compound, were automatically generated, and sigmoidal inhibition curves were fitted using non-linear regression. The pIC50 values of test compounds were derived from individual curves.

For the next assay, the target named is T2, 5HT-Transporter (Homo sapiens, UniProt P31645).
T2 construct: Human platelet membranes (Oceanix Biosciences Corporation, Hanover, Md., USA) were thawed; tissue Oceanix Biosciences Corporation, Hanover, Md., USA; host or cells: human platelet membranes
T2 sequence (P31645 whole entry): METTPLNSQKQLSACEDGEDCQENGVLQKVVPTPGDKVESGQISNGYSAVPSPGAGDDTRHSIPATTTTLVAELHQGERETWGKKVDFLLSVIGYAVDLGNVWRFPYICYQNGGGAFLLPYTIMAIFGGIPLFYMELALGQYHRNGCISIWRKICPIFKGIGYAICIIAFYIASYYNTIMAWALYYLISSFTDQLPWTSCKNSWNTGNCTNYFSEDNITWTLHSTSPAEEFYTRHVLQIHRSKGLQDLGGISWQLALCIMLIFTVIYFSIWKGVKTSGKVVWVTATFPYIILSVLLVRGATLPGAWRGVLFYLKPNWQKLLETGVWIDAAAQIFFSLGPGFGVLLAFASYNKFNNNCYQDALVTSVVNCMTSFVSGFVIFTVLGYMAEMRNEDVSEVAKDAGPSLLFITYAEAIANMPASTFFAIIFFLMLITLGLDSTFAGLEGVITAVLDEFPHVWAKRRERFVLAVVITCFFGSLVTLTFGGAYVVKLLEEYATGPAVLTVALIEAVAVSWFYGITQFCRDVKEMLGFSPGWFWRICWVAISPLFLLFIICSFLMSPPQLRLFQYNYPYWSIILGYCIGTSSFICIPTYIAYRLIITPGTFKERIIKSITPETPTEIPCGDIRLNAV
As to the kind of experiment: Binding experiment for the 5HT-transporter ([3H]paroxetine, human platelet membranes). As to conditions: [3H]paroxetine 0.5 nM; for IC50: read-out: h-5HTT pIC50 (converted). The method, then:
as §1
Human platelet membranes (Oceanix Biosciences Corporation, Hanover, Md., USA) were thawed, diluted in buffer (Tris-HCl 50 mM, 120 mM NaCl and 5 mM KCl) and quickly (max 3 s) homogenised with an Ultraturrax homogenizer. […] Incubation was stopped by rapid filtration of the incubation mixture over GF/B filters, pre-wetted with 0.1% polyethyleneamine, using a Filtermate196 harvester (Packard, Meriden, Conn.). Filters were rinsed extensively with ice-cold buffer and radioactivity on the filters was counted in a Topcount liquid scintillation counter (Packard, Meriden, Conn.). Data were expressed as cpm. Imipramine (at 1 μM final concentration) was used to determine the non-specific binding.
as §4

Another assay concerns the target T3, hα2C receptor (Homo sapiens, UniProt P18825).
T3 construct: expressed in transfected cells; host or cells: CHO cells, stably transfected; membrane preparation
T3 sequence (P18825 1-462): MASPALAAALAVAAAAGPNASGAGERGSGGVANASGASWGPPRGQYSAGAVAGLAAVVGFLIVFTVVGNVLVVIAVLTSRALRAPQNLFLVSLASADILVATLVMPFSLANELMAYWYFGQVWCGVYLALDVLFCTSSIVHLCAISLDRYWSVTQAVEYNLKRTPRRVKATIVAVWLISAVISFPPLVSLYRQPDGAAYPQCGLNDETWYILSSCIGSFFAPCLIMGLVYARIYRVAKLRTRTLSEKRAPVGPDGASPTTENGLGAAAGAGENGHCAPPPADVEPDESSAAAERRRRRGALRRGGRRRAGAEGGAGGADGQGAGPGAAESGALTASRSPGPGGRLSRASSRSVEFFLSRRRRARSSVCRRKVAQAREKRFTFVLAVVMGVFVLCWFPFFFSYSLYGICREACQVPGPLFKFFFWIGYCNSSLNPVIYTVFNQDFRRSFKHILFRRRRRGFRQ
As to the kind of experiment: Radioligand binding experiment for α2C-adrenoceptor ([3H]raulwolscine, CHO cell membranes). Particulars: [3H]raulwolscine binding; for IC50: read-out: h-α2C pIC50 (converted). The method, then: as §1, §2, §3, §4

As for `C/C(=C\c1ccccc1)CN1CCC(Nc2nccn(CCCN(C)C(=O)Nc3ccccc3)c2=O)CC1` [1-121], the IC50 at hα2A receptor was 158 nM; at 5HT-Transporter, 794 nM; on hα2C receptor, 6.31 nM.

Turning to `C/C(=C\c1ccccc1)CN1CCC(Nc2nccn(Cc3ccc(NCCN(C)C)cc3)c2=O)CC1` [1-104], the IC50 at hα2A receptor was 12.6 nM; at 5HT-Transporter, 200 nM; at hα2C receptor, 2.51 nM.

In the case of `CCN(Cc1ccncc1)C(=O)Cn1ccnc(NC2CCN(C/C(C)=C/c3ccccc3)CC2)c1=O` [1-142], the results for the IC50 at hα2A receptor, on 5HT-Transporter and on hα2C receptor were 158 nM, 1000 nM and 3.16 nM, respectively.

Take `C/C(=C\c1ccccc1)CN1CCC(Nc2nccn(CC(=O)C34CC5CC(CC(C5)C3)C4)c2=O)CC1` [7-10]: the IC50 on hα2A receptor was 50.1 nM; on 5HT-Transporter, 1260 nM; on hα2C receptor, 10 nM.

Turning to `C/C(=C\c1ccccc1)CN1CCC(Nc2nccn(-c3cccc(NCCc4ccccc4)c3)c2=O)CC1` [1-58], the IC50 at hα2A receptor is 25.1 nM; at 5HT-Transporter, 398 nM; on hα2C receptor, 6.31 nM.

Consider `C/C(=C\c1ccccc1)CN1CCN(c2nccn(C/C=C/c3ccccc3)c2=O)CC1` [12-3], for which the values for the IC50 at hα2A receptor, at 5HT-Transporter and at hα2C receptor were 398 nM, 1260 nM and 126 nM, respectively.

In the case of `COC(=O)CCNCc1ccc(-n2ccnc(NC3CCN(C/C(C)=C/c4ccccc4)CC3)c2=O)cc1` [1-96], on hα2A receptor, the “h-α2A pIC50” value was 7.1. On 5HT-Transporter, the “h-5HTT pIC50” value turned out to be 6.0. Besides, the “h-α2C pIC50” value on hα2C receptor is 8.6.

In the case of `COCC(=O)NCc1ccc(Cn2ccnc(NC3CCN(C/C(C)=C/c4ccccc4)CC3)c2=O)cc1` [1-93], the IC50 is 158 nM at hα2A receptor, 1260 nM at 5HT-Transporter and 50.1 nM on hα2C receptor.

Consider `C/C(=C\c1ccccc1)CN1CCC(Nc2nccn(-c3ccc(-c4ccccc4)cc3)c2=O)CC1` [5-30], for which the IC50 at hα2A receptor was 25.1 nM; on 5HT-Transporter it was 398 nM; on hα2C receptor it was 7.94 nM.

As to `COC(=O)CC(=O)NCc1ccc(Cn2ccnc(NC3CCN(C/C(C)=C/c4ccccc4)CC3)c2=O)cc1` [1-100], the IC50 at hα2A receptor was 126 nM; at 5HT-Transporter, 1000 nM; at hα2C receptor it was 25.1 nM.

Turning to `C/C(=C\c1ccccc1)CN1CCC(Nc2nccn(CC(=O)N3CCN(c4ccccc4)CC3)c2=O)CC1` [2-26], the IC50 at hα2A receptor was 126 nM; at 5HT-Transporter, 794 nM; on hα2C receptor it was 7.94 nM.

In the case of `C/C(=C\c1ccccc1)CN1CCC(Nc2nccn(Cc3ccc(CNS(C)(=O)=O)cc3)c2=O)CC1` [1-156], the results for the IC50 at hα2A receptor, on 5HT-Transporter and at hα2C receptor were 158 nM, 1260 nM and 31.6 nM, respectively.

In the case of `C/C(=C\c1ccccc1)CN1CCC(Nc2nccn(-c3cccc(N4CCC(N5CCCC5)CC4)c3)c2=O)CC1` [2-18], the IC50 is 12.6 nM on hα2A receptor, 794 nM on 5HT-Transporter and 1.26 nM at hα2C receptor.

As to `C/C(=C\c1ccccc1)CN1CCC(Nc2nccn(CCCN(C)C)c2=O)CC1` [1-15], the IC50 on hα2A receptor is 50.1 nM; at 5HT-Transporter it was 7940 nM; at hα2C receptor, 3.98 nM.

With `CCOC(=O)N1CCN(C(=O)Cn2ccnc(NC3CCN(C/C(C)=C/c4ccccc4)CC3)c2=O)CC1` [2-35], the IC50 at hα2A receptor was 158 nM; on 5HT-Transporter, 2510 nM; on hα2C receptor it was 31.6 nM.

Consider `COCCOCCn1ccnc(NC2CCN(C/C(C)=C/c3ccccc3)CC2)c1=O` [3-21], for which the figures for the IC50 on hα2A receptor, on 5HT-Transporter and on hα2C receptor were 316 nM, 3980 nM and 39.8 nM, respectively.

Regarding `C/C(=C\c1ccccc1)CN1CCC(Nc2nccn(CC(=O)NCCN(C)C)c2=O)CC1` [1-102], the IC50 on hα2A receptor is 31.6 nM; on 5HT-Transporter it was 3160 nM; at hα2C receptor, 2 nM.

Regarding `C/C(=C\c1ccccc1)CN1CCC(Nc2nccn(C/C=C/CN3C(=O)c4ccccc4C3=O)c2=O)CC1` [2-52], the values for the IC50 at hα2A receptor, on 5HT-Transporter and at hα2C receptor were 50.1 nM, 31.6 nM and 2 nM, respectively.

`C/C(=C\c1ccccc1)CN1CCC(Nc2nccn(Cc3ccccc3Br)c2=O)CC1` [5-14]: the IC50 at hα2A receptor was 50.1 nM; at 5HT-Transporter it was 200 nM; on hα2C receptor, 12.6 nM.

As to `C/C(=C\c1ccccc1)CN1CCC(Nc2nccn(-c3ccc(CNC(=O)OC(C)(C)C)cc3)c2=O)CC1` [1-91], the “h-α2A pIC50” value on hα2A receptor is on record as 6.5. Further, the “h-5HTT pIC50” value at 5HT-Transporter came out at 6.1. In addition, the “h-α2C pIC50” value on hα2C receptor was found to be 7.7.

Take `O=c1c(NC2CCN(C/C=C/c3ccccc3)CC2)nccn1Cc1ccc(Br)cc1` [16-17]: the IC50 was 501 nM on hα2A receptor, 794 nM on 5HT-Transporter and 316 nM at hα2C receptor.

On to `CCCn1ccnc(NC2CCN(C/C(C)=C/c3ccccc3)CC2)c1=O` [7-4], for which the IC50 at hα2A receptor is 25.1 nM; on 5HT-Transporter, 631 nM; at hα2C receptor, 12.6 nM.

Regarding `CCOC(=O)N1CCC(NCc2cccc(-n3ccnc(NC4CCN(C/C(C)=C/c5ccccc5)CC4)c3=O)c2)CC1` [1-127], the “h-α2A pIC50” value at hα2A receptor worked out at 7.3. Besides, on 5HT-Transporter, the “h-5HTT pIC50” value is recorded as 5.5. Besides, on hα2C receptor, the “h-α2C pIC50” value is on record as 8.0.

Turning to `CCCC(=O)NCCCn1ccnc(NC2CCN(C/C(C)=C/c3ccccc3)CC2)c1=O` [1-32], the figures for the IC50 on hα2A receptor, at 5HT-Transporter and on hα2C receptor were 200 nM, 2510 nM and 12.6 nM, respectively.

Take `COc1ccc(Cn2c(-c3cccc(Br)c3)c(Cl)nc(NC3CCN(C/C(C)=C/c4ccccc4)CC3)c2=O)cc1` [17-2]: the IC50 on hα2A receptor was 794 nM; on 5HT-Transporter, 1580 nM; at hα2C receptor, 501 nM.

On to `C/C(=C\c1ccccc1)CN1CCC(Nc2nccn(CC(=O)c3ccc4c(c3)NC(=O)CO4)c2=O)CC1` [6-15], for which the IC50 on hα2A receptor is 15.8 nM; at 5HT-Transporter it was 1000 nM; on hα2C receptor it was 20 nM.

For `COC(=O)C1CCN(C(=O)Cn2ccnc(NC3CCN(C/C(C)=C/c4ccccc4)CC3)c2=O)CC1` [2-15], the IC50 on hα2A receptor is 126 nM; on 5HT-Transporter, 3980 nM; at hα2C receptor it was 3.98 nM.

Regarding `C/C(=C\c1ccccc1)CN1CCC(Nc2nccn(Cc3csc(C)n3)c2=O)CC1` [6-6], the IC50 on hα2A receptor was 126 nM; on 5HT-Transporter, 3160 nM; on hα2C receptor, 20 nM.
